Results: the supplement of paper PMC10307832

How the values were obtained:
Test in all cases: relative viability (nuclei count vs DMSO), 5 days (fraction); higher = more cells survive
[1] = compound: CC1=CC=C(C=C1)C(=O)CN2C3=C(CCCC3)SC2=N [Pifithrin_alpha] + CCNC(=O)c1noc(-c2cc(C(C)C)c(O)cc2O)c1-c1ccc(CN2CCOCC2)cc1 [Luminespib] (partner 0.01 µM)
In short: (§1)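 Five library-drug doses in √10 steps were combined with a fixed anchor-drug dose, or a single drug was given alone, by pin tool to lung cancer cell lines in 1536-well plates the day after seeding. Nuclei were stained and counted after 5 days. Relative viability is the nuclei count in treated wells over that in vehicle wells, taken as the median of duplicate plates.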

[2] = compound: CC1=CC=C(C=C1)C(=O)CN2C3=C(CCCC3)SC2=N [Pifithrin_alpha] + Nc1nc2[nH]cc(CCc3ccc(C(=O)N[C@@H](CCC(=O)O)C(=O)O)cc3)c2c(=O)[nH]1 [Pemetrexed] (partner 0.2 µM)
In short: as §1

Axitinib + Foretinib = compound: CNC(=O)c1ccccc1Sc1ccc2c(/C=C/c3ccccn3)n[nH]c2c1 [Axitinib] + COc1cc2c(Oc3ccc(NC(=O)C4(C(=O)Nc5ccc(F)cc5)CC4)cc3F)ccnc2cc1OCCCN1CCOCC1 [Foretinib] (partner 0.25 µM)
In short: as §1

Bemcentinib + OSI-027 = compound: Nc1nc(Nc2ccc3c(c2)CC[C@@H](N2CCCC2)CC3)nn1-c1cc2c(nn1)-c1ccccc1CCC2 [Bemcentinib] + COc1cccc2cc(-c3nc([C@H]4CC[C@H](C(=O)O)CC4)n4ncnc(N)c34)[nH]c12 [OSI-027] (partner 0.5 µM)
In short: as §1

Row | Cell Line | relative viability ([1]; first compound 1 µM) | relative viability ([1]; first compound 3.162 µM) | relative viability ([1]; first compound 10 µM) | relative viability ([1]; first compound 100 µM) | relative viability ([2]; first compound 1 µM) | relative viability ([2]; first compound 3.162 µM) | relative viability ([2]; first compound 10 µM) | relative viability ([2]; first compound 31.62 µM) | relative viability ([2]; first compound 100 µM) | relative viability (Axitinib + Foretinib; first compound 0.005 µM) | relative viability (Axitinib + Foretinib; first compound 0.01581 µM) | relative viability (Axitinib + Foretinib; first compound 0.05 µM) | relative viability (Axitinib + Foretinib; first compound 0.1581 µM) | relative viability (Axitinib + Foretinib; first compound 0.5 µM) | relative viability (Bemcentinib + OSI-027; first compound 0.04 µM) | relative viability (Bemcentinib + OSI-027; first compound 0.1265 µM) | relative viability (Bemcentinib + OSI-027; first compound 0.4 µM) | relative viability (Bemcentinib + OSI-027; first compound 1.265 µM) | relative viability (Bemcentinib + OSI-027; first compound 4 µM) | relative viability ([1]; first compound 31.62 µM)
1 | SK-LU-1 | 0.216 | 0.188 | 0.213 | 0.165 | 1.03 | 1.03 | 1.07 | 0.752 | 1.14 | 0.904 | 0.959 | 0.929 | 0.849 | 1.1 | 0.37 | 0.382 | 0.35 | 0.369 | 0.331 | –
2 | NCI-H23 | 0.231 | 0.218 | 0.206 | 0.187 | 0.679 | 0.609 | 0.734 | 0.479 | 0.547 | 1.06 | 0.948 | 1.06 | 0.955 | 1.02 | 0.581 | 0.612 | 0.713 | 0.447 | 0.684 | 0.205
3 | SW 900 | 0.2 | 0.194 | 0.142 | 0.19 | 0.493 | 0.509 | 0.499 | 0.503 | 0.371 | 1.02 | 0.673 | 0.941 | 1.01 | 1.12 | 0.446 | 0.544 | 0.71 | 0.473 | 0.419 | 0.167
4 | CAL-12T | 0.277 | 0.327 | 0.521 | 0.186 | 1.31 | 1.29 | 1.1 | – | 1.19 | 1.13 | 1.08 | 1.15 | 1.17 | 1.21 | 0.6 | 0.912 | 0.77 | 0.769 | 0.755 | –
5 | A-427 | 1.07 | 0.917 | 1 | 0.828 | 0.827 | 1 | 0.87 | 0.759 | 0.905 | 1.12 | 1.15 | 1.12 | 0.94 | 1.26 | 0.455 | 0.511 | 0.492 | 0.427 | 0.472 | 0.678
6 | NCI-H2009 | 1.07 | 1.04 | 0.926 | 0.967 | 0.985 | 1.01 | 0.949 | 0.702 | 0.944 | 1.21 | 1.23 | 1.23 | 1.27 | 1.08 | 0.626 | 0.743 | 0.684 | 0.709 | 0.665 | 0.701
7 | UMC-11 | 0.98 | 1.22 | 1.36 | 1.48 | 0.866 | 0.869 | 0.824 | 0.723 | 1.08 | 1.01 | 1.1 | 1.03 | 1.1 | 1.1 | 0.466 | 0.528 | 0.504 | 0.516 | 0.473 | 1.08
8 | NCI-H596 | 0.991 | 1.1 | 1.02 | 0.566 | 0.523 | 0.468 | 0.513 | 0.498 | 0.483 | 0.504 | 0.861 | 0.803 | 0.873 | 0.818 | 0.739 | 0.665 | 0.707 | 0.757 | 0.802 | 0.507
9 | LOU-NH91 | 0.322 | 0.261 | 0.308 | 0.296 | 0.398 | 0.362 | 0.307 | 0.332 | 0.359 | 0.917 | 0.659 | 0.981 | 0.962 | 0.957 | 0.697 | 0.703 | 0.721 | 0.749 | 0.775 | 0.315
10 | HOP-62 | 1.07 | 1.05 | 1.04 | 1.19 | 0.209 | 0.4 | 0.38 | 0.304 | 0.441 | 1.07 | 1.14 | 1.06 | 1.09 | 1.3 | 0.958 | 0.904 | 0.845 | 0.853 | 0.9 | 0.776
11 | NCI-H1993 | 0.716 | 0.658 | 0.704 | 0.66 | 0.844 | 0.547 | 0.669 | 0.452 | 0.479 | 0.771 | 0.731 | 0.823 | 0.956 | 0.845 | 0.592 | 0.534 | 0.557 | 0.548 | 0.506 | 0.621
